Data reported in patent US20230142789A1, “A SWEETENER OR SWEETNESS ENHANCER COMPOSITION” (ANALYTICON DISCOVERY GMBH, priority 2020, published 2023).

Assay: Organoleptic test of the compounds against sucrose
Type: in vivo
Design: key: 3: sweeter than the control solution; 2: sweetness comparable with the control solution; 1: less sweet than the control solution but still sweet
Conditions: 0.4 mg/ml (400 ppm) in non-carbonated mineral water vs sucrose 20 g/l; panel of 3-4 panelists
Procedure: The isolated pure compound was dissolved in non-carbonated mineral water (“Evian”) in a concentration of 0.4 mg/ml (400 ppm). The sweet taste of each sample was compared by a panel of 3-4 panelists with a solution of sucrose in a concentration of 20 g/I.

| Compound | Sweetness |
| --- | --- |
| 11-Oxoisomogroside V [11-Isomogroside V] | 3 |
| C[C@H](CC[C@@H](O[C@@H]1O[C@H](CO[C@@H]2O[C@H](CO)[C@@H](O)[C@H](O)[C@H]2O)[C@@H](O)[C@H](O)[C@H]1O[C@@H]1O[C@H](CO)[C@@H](O)[C@H](O)[C@H]1O)C(C)(C)O)[C@H]1CC[C@@]2(C)[C@@H]3CC=C4C(CC[C@H](O[C@@H]5O[C@H](CO[C@@H]6O[C@H](CO[C@@H]7O[C@H](CO)[C@@H](O)[C@H](O)[C@H]7O)[C@@H](O)[C@H](O)[C@H]6O)[C@@H](O)[C@H](O)[C@H]5O)C4(C)C)[C@]3(C)[C@H](O)C[C@]12C (some centres unmarked) [Mogroside Via] | 3 |
